Assay results taken from patent US20260242350A1, “POLYCYCLIC THYROID HORMONE BETA RECEPTOR AGONIST AND USE THEREOF” (CASCADE PHARMACEUTICALS, INC., priority 2023, published 2026).

Columns and labels:
[1] = target: T1, THRβ LBD (His-GST-dLBT-THRβLBD) (Homo sapiens, UniProt P10828); test: THR-FRET (time-resolved fluorescence resonance energy transfer) agonist activity assay, THRβ; type: biochemical; settings: for EC50: 24 h at room temperature; for Selectivity (THRα/THRβ): ratio of EC50 THRα/THRβ
T1 construct: made in house; host or cells: E. coli BL21 (DE3)
T1 sequence (P10828 217-461 limits assumed): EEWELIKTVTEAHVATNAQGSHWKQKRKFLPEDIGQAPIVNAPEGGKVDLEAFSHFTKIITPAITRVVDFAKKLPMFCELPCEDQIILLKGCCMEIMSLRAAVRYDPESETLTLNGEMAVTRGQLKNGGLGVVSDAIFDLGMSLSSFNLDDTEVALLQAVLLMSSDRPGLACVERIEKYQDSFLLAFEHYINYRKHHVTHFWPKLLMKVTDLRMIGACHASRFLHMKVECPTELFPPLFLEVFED
Description: (§1) Experimental Example 1: Detection of Agonist Activities of Compounds Against THRα/β Based on Time-Resolved Fluorescence Resonance Energy Transfer (THR-FRET)
(§2) 1. Construction of THRα/β Overexpression Vectors
(§3) By visiting NCBI, the THRα/β LBD domain sequences were found. The pET21-His-GST-dLBT-THRα LBD and pET21-His-GST-dLBT-THRβLBD overexpression vectors were constructed by the fusion method, and sequenced to confirm the accuracy of the sequences.
(§4) 2. Prokaryotic Expression of Recombinant Proteins in E. coli
(§5) The THRα LBD and THRβLBD overexpression vectors confirmed by sequencing were transfected into E. coli cells BL21 (DE3), and spread on an ampicillin-resistant agar plate. Monoclones were picked out and amplified in an LB medium, and transferred into 1 L LB at a ratio of 1:100 for large-scale culture. When the OD value was at 0.8 to 1.2, 0.5 mM isopropyl-beta-D-thiogalactopyranoside (IPTG) was added, and induced overnight at 18° C. The bacteria were harvested, disrupted, and purified via the GST column and the molecular sieve to obtain two proteins His-GST-dLBT-THRα LBD and His-GST-dLBT-THRβLBD.
(§6) 3. Preparation of Compounds and Formulation of Reaction System
(§7) The proteins were taken out from a refrigerator at −80° C. The protein s with the GST-tagged THRα/p LBD domain and the Eu-labelled GST antibodies were thawed slowly on ice, and an assay buffer containing a final concentration of 5 mM dithiothreitol (DTT) was formulated.
(§8) 3.1 Preparation of Compounds
(§9) The starting concentration of the compound was 10 μM (in DMSO). The compound (100 μM in DMSO) was subjected to 3-fold isogradient dilution with DMSO to obtain a total of 11 isogradient concentrations. Subsequently, the above compounds at the isogradient concentration were further subjected to 50-fold dilution with an assay buffer containing 5 mM DTT.
(§10) 3.2 Formulation of THR-FRET Reaction System
(§11) The final concentrations of all components were calculated based on a system with a final volume of 20 µL per well. To […] of assay buffer containing 5 mM DTT, the GST-tagged THRα/β proteins, the SRC2 ([…]) polypeptide, XL665 (Cisobio, #610SAXLB), and the Eu-labeled GST antibody were added, and the final concentrations were 2 nM, 200 nM, 0.05 nM, and 7.6 nM respectively to formulate 18 μL of reaction mixture of the proteins, polypeptide, and antibody per well.
(§12) 18 μL of reaction mixture and 2 μL of diluted compound were added into an optiplate-384-well plate, and reacted at room temperature for 24 h.
(§13) The plate was read using an MD i3x multi-mode microplate reader with the excitation and emission wavelengths of 340 nm and 665 nm, respectively. The intensity of light at a wavelength of 616 nm generated by europium excited by 340 nm wavelength light from the MD i3x multi-mode microplate reader was used as the background. According to the different activation degrees of different compounds against THRα and THRβ, the intensity of the emission light at a wavelength of 665 nm generated by exciting XL665 with the exciting light at a wavelength of 616 nm was varied. The intensity ratio between these two light wavelengths (665 nm, 616 nm) was used as the activation activity of the compound against THRα or THRβ, and was normalized against the ratio in the vehicle DMSO group. The dose-response curve was fitted with four parameters using the GraphPad Prism 6.0 software, and the EC50 value was calculated.

[2] = target: T2, THRα LBD (His-GST-dLBT-THRα LBD) (Homo sapiens, UniProt P10827); test: THR-FRET (time-resolved fluorescence resonance energy transfer) agonist activity assay, THRα; type: biochemical; settings: 24 h at room temperature
T2 construct: made in house; host or cells: E. coli BL21 (DE3)
T2 sequence (P10827 163-407 isoform P10827-2): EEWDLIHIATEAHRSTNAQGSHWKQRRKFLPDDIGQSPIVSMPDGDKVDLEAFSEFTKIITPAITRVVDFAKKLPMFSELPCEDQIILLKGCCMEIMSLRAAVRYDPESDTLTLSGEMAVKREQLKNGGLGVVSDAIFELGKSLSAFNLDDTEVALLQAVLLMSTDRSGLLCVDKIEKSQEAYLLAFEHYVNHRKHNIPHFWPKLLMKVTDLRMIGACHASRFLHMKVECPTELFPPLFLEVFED
Description: as §1, §2, §3, §4, §5, §6, §7, §8, §9, §10, §11, §12, §13

[3] = target: T3, THRβ (pGAL4-THRβ-LBD) (Homo sapiens, UniProt P10828); test: Reporter gene (Dual-Glo luciferase) agonist activity assay in HEK293T cells, THRβ; type: cell-based; settings: ratio of EC50 THRα/THRβ
T3 construct: expressed in transfected cells; host or cells: HEK293T
T3 sequence (P10828 217-461): T1 sequence (P10828 217-461 limits assumed)
Description: Experimental Example 2: Detection of Agonist Activities of Compounds Against THRα and THRβ Based on Reporter Gene Activity Assay Method
1.1 Construction and Preparation of Plasmids pGAL4-THR-LBD and pG5-Luc
The pGAL4-THRα-LBD and pGAL4-THRβ-LBD plasmids used in the reporter gene assay system were constructed by a conventional molecular cloning method comprising the following main steps: the cDNA sequences of THRα (NM_003250) and THRβ(NM_000461) corresponding to the amino acid sequences of THRα (163-407AA) and THRβ(217-461AA) were inserted into the BamHI and NotI enzyme digestion sites of the pGAL4 vector by the PCR technique respectively to obtain the pGAL4-THRα-LBD and pGAL4-THRβ-LBD plasmids; the pG5-Luc (#E249A) and pRL-TK (#E2241) plasmids were purchased from Promega; the plasmids were transfected into the E. coli DH5a by the CaCl2 method, and after further culture and amplification, the plasmids were purified by Plasmid Extraction Kits (TIANGEN, #D107) to obtain the corresponding plasmid DNAs.
1.2 Co-Transfection of Plasmids into HEK293T Cells and Treatment with Compounds
The HEK293T cells were inoculated into a 96-well plate at a density of 1×10^4/well the day before plasmid transfection. Cell transfection was conducted according to the instructions of the transfection reagent FuGENE® HD (Promega, #E2311). The main steps were as follows: taking one well as an example here, the plasmids pGAL4-THRα-LBD or pGAL4-THRβ-LBD, pG5-Luc, and pRL-TK were added in the proportions of 20 ng, 50 ng, and 5 ng to 10 μL of Opti-MEM™ I medium (Gibco, #11058021) and mixed well; subsequently, 0.25 μL of FuGENE® HD was added, mixed well, and then left at room temperature for 5 min; afterwards, […] was added to the cell wells containing 100 μL of culture medium. After cell co-transfection for 6 h, the compound was diluted in a 3-fold gradient with dimethyl sulfoxide at the highest concentration of 1 μM. The compound was added to the cell culture medium at a total of 10 concentrations for treatment for 24 h. There were a total of two duplicate wells for each concentration. Triiodothyronine (T3) was used as the positive control.
1.3 Dual-Glo Luciferase Assay
After the cells were treated with the compound for 24 h, the cells were assayed according to the instructions of Dual-Glo® Luciferase Assay System (Promega, #E2940). The main steps were as follows: 50 μL of culture medium was aspirated from each well and discarded, and then 50 μL of Dual-Glo® Luciferase reagent was added and oscillated at room temperature for 10 min; 80 μL of lysis reaction solution was measured into a white opaque optiPlate-96-well plate, and the luminescence signal value (Firefly-Luc) of the Firefly luciferase was detected using an MD i3x multi-mode microplate reader; 40 μL of Dual-Glo® Stop & Glo® reagent was then added, and oscillated at room temperature for 10 min; the luminescence signal value (Renilla-Luc) of the Renilla luciferase was then detected using an MD i3x multi-mode microplate reader. The Firefly-Luc/Renilla-Luc ratio was used as the activation activity of the compound against THR, and was normalized against the ratio in the vehicle DMSO group; the dose-response curve was fitted with four parameters using the GraphPad Prism6.0 software, and the EC50 value was calculated.

Row | Structure (SMILES) | EC50 [1] | Selectivity (THRα/THRβ) [1] | EC50 [2] | Selectivity (THRα/THRβ) [3]
1 | N#Cc1nn(-c2cc(Cl)c(Cn3ccc(=O)c4ccccc43)c(Cl)c2)c(=O)[nH]c1=O [Compound 31] | 100 to 1000 nM | †† (10 > THRα/β > 1) | 1000 to 10000 nM | –
2 | C#Cc1nn(-c2cc(Cl)c(Cn3ccc(=O)c4ccccc43)c(Cl)c2)c(=O)[nH]c1=O [Compound 40] | 50 to 100 nM | †† (10 > THRα/β > 1) | 100 to 1000 nM | –
3 | Cn1nc(-c2cc(Cl)c(Cn3ccc(=O)c4ccccc43)c(Cl)c2)c(=O)[nH]c1=O [Compound 51] | – | – | – | † (5 ≥ THRα/β)
4 | O=c1[nH]c(COc2cc(Cl)c(Cn3ccc(=O)c4ccccc43)c(Cl)c2)no1 [Compound 58] | 100 to 1000 nM | †† (10 > THRα/β > 1) | 100 to 1000 nM | –
5 | O=c1ccn(Cc2c(Cl)cc(OCc3nnn[nH]3)cc2Cl)c2ccccc12 [Compound 59] | 100 to 1000 nM | †† (10 > THRα/β > 1) | 100 to 1000 nM | –
6 | O=C(O)CNc1cc(Cl)c(Cn2ccc(=O)c3ccccc32)c(Cl)c1 [Compound 60] | 100 to 1000 nM | †† (10 > THRα/β > 1) | 100 to 1000 nM | –
7 | O=C(O)CC(=O)Nc1cc(Cl)c(Cn2ccc(=O)c3ccccc32)c(Cl)c1 [Compound 61] | 100 to 1000 nM | †† (10 > THRα/β > 1) | 1000 to 10000 nM | –
8 | O=C(O)C(=O)Nc1cc(Cl)c(Cn2ccc(=O)c3ccccc32)c(Cl)c1 [Compound 62] | 50 to 100 nM | †† (10 > THRα/β > 1) | 100 to 1000 nM | –
9 | O=c1[nH]nc(CNc2cc(Cl)c(Cn3ccc(=O)c4ccccc43)c(Cl)c2)o1 [Compound 63] | 100 to 1000 nM | †† (10 > THRα/β > 1) | 1000 to 10000 nM | –
10 | O=c1[nH]c(CNc2cc(Cl)c(Cn3ccc(=O)c4ccccc43)c(Cl)c2)no1 [Compound 64] | 50 to 100 nM | †† (10 > THRα/β > 1) | 100 to 1000 nM | –
11 | O=c1ccn(Cc2c(Cl)cc(NCc3nnn[nH]3)cc2Cl)c2ccccc12 [Compound 65] | < 50 nM | ††† (THRα/β ≥ 10) | 100 to 1000 nM | –
12 | O=C(Nc1cc(Cl)c(Cn2ccc(=O)c3ccccc32)c(Cl)c1)c1noc(=O)[nH]1 [Compound 66] | 100 to 1000 nM | ††† (THRα/β ≥ 10) | 1000 to 10000 nM | –
